# Experimental data: patent US4265901A, “2-Oxybenzimidazoline compounds” (priority 1979, dated 1981)
# Counter-ions that a name gives are not always drawn.
# Experiments:
# [1] = system: Rice; test: Pre-emergence herbicide test, rice; type: in vivo
# Description: (§1) In this evaluation, each compound to be tested was dissolved in a 1:1 mixture of acetone and ethanol containing a small amount of Toximul R and Toximul S (each a sulfonate/nonionic blend produced by Stepan Chemical Company, Northfield, Illinois). The solution was then diluted with deionized water to a composition of the following concentrations, by weight: Plant species used as indicators of herbicidal activity were planted in galvanized pans (flats) 31.5 cm. long, 21.5 cm. wide, and 8.0 cm. deep. The bottoms of the flats had holes to facilitate drainage. The soil used was a 1:1 ratio by volume of masonry sand and shredded top soil. Flats that were to receive preemergence treatments were planted one day prior to, or on the same day treatments were applied. Flats that were to receive postemergence treatments were planted 9 days prior to treatment and placed in a growth chamber until the day of treatment. In the growth chamber, flats received 12 to 18 hours of light per day and were subject to temperatures of 75° to 85° F. The formulated test compound was applied uniformly to the indicator species with a modified DeVilbiss atomizer using air pressure of 3 to 5 psi. Each flat received 12.5 ml. of spray solution which was equal to 200 gallons/acre total spray volume. Plants were maintained in a greenhouse after treatment. Herbicidal effects of chemicals were evaluated by two injury rating systems 18 days after preemergence applications and 14 days after postemergence applications. The degree of plant injury was based on a 1 to 5 scale and a single numerical rating was assigned to each test species as follows: […]
# [2] = system: Cucumber; test: Pre-emergence herbicide test, cucumber; type: in vivo
# Description: as §1
# [3] = system: Tomato; test: Pre-emergence herbicide test, tomato; type: in vivo
# Description: as §1
# [4] = system: Lambsquarter; test: Pre-emergence herbicide test, lambsquarter; type: in vivo
# Description: as §1
# [5] = system: Pigweed; test: Pre-emergence herbicide test, pigweed; type: in vivo, Amaranthus retroflexus
# Description: as §1, with “soil. Seeds of seven indicator species were planted in rows perpendicular to the long axis of the flat, one species per row, and covered with 0.5 to 1.0 cm. of sterilized soil. Indicator species and approximate number of seeds planted were as follows:” for “soil.”
# [6] = system: Zinnia; test: Pre-emergence herbicide test, zinnia; type: in vivo, Zinnia elegans
# Description: as §1, with “soil. Seeds of seven indicator species were planted in rows perpendicular to the long axis of the flat, one species per row, and covered with 0.5 to 1.0 cm. of sterilized soil. Indicator species and approximate number of seeds planted were as follows:” for “soil.”
# [7] = system: Large Crabgrass; test: Post-emergence herbicide test, large crabgrass; type: in vivo, Digitaria sanguinalis
# Description: as §1, with “soil. Seeds of seven indicator species were planted in rows perpendicular to the long axis of the flat, one species per row, and covered with 0.5 to 1.0 cm. of sterilized soil. Indicator species and approximate number of seeds planted were as follows:” for “soil.”
# [8] = system: Morning-glory; test: Post-emergence herbicide test, morningglory; type: in vivo, Ipomoea purpurea
# Description: as §1, with “soil. Seeds of seven indicator species were planted in rows perpendicular to the long axis of the flat, one species per row, and covered with 0.5 to 1.0 cm. of sterilized soil. Indicator species and approximate number of seeds planted were as follows:” for “soil.”
# [9] = system: Zinnia; test: Post-emergence herbicide test, zinnia; type: in vivo, Zinnia elegans
# Description: as §1, with “soil. Seeds of seven indicator species were planted in rows perpendicular to the long axis of the flat, one species per row, and covered with 0.5 to 1.0 cm. of sterilized soil. Indicator species and approximate number of seeds planted were as follows:” for “soil.”
# [10] = system: housefly; test: House fly contact test; for all read-outs here: ranges in brackets are in %; type: in vivo, Musca domestica; settings: 1000 ppm; for Housefly Kd. (knockdown rating): 2 hours; for Housefly Cont. (mortality rating): 24 hours
# Description: In this evaluation, each compound to be tested was dissolved in a 1:1 mixture of acetone and ethanol containing a small amount of Toximul R and Toximul S (each a sulfonate/nonionic blend produced by Stephan Chemical Company, Northfield, Ill.). The solution was then diluted with distilled water to a concentration of 1000 ppm of test compound. Lesser concentration formulations were made by diluting a portion of the 1000 ppm solution with distilled water containing 225 mg. of Toximul R and 125 mg. of Toximul S per liter.
# This test was conducted with 4-day-old adults of Musca domestica (Linne), Order Diptera, Family Muscidae.
# Rearing cages of 4-day-old adult house flies were placed in a cold room and held for one hour at 35° to 40° F. to chill so that the flies could be transferred to test cages. Approximately 100 flies were transferred to each test cage using a small scoop. The stainless steel test cages were five inches in diameter and one and three-fourths inches deep with a stainless steel screen bottom and screened removable friction fitting lid. The small hole on the side of the cage was kept stoppered except when a wick was inserted for feeding and watering.
# Each cage was sprayed with 5 ml. of the test formulation containing 1000 ppm. of the test compound, using a DeVilbiss atomizer supplied with 5 psi air pressure. The nozzle was 33 inches from the top of the cage. After spraying, cages were allowed to dry.
# Knockdown counts were made two hours after spraying and then the flies were fed and watered by inserting a four-inch wick of Fibre Flex Supreme, unbleached (16/32"), (manufactured by Sackner Products, Inc., Grand Rapids, Mich.) in the hole on the side of the cage. The cage was placed so that the wick hung down into a pan of five percent sugar solution in water.
# One replicate was run for each test compound. One unsprayed cage was held as a control, one cage was sprayed as a negative control, and one cage was sprayed with a formulation containing 50 ppm. (0.005%) DDT as a reference standard.
# Mortality counts were made 24 hours after spraying. The cage was rapped lightly. […] Moribund flies were counted as dead.
compound,measurement,setting,value
"O=[N+]([O-])c1cc(C(F)(F)F)cc2c1NC(O)(C(F)(F)C(F)F)N2 (centres unmarked) [Example 2, 2-Hydroxy-2-(1,1,2,2-Tetrafluoroethyl)-4-Nitro-6-(Trifluoromethyl)Benzimidazoline, Sodium Salt, and Hydrate]",plant injury rating,[1]; 1/2 lb/A,1 (no injury)
same,plant injury rating,[1]; 1/4 lb/A,1 (no injury)
same,plant injury rating,[1]; 1 lb/A,1 (no injury)
same,plant injury rating,[1]; 2 lb/A,2S
same,plant injury rating,[1]; 4 lb/A,2SB
same,plant injury rating,[2]; 1/2 lb/A,1 (no injury)
same,plant injury rating,[2]; 1/4 lb/A,1 (no injury)
same,plant injury rating,[2]; 1 lb/A,1 (no injury)
same,plant injury rating,[2]; 2 lb/A,1 (no injury)
same,plant injury rating,[2]; 4 lb/A,4BS
same,plant injury rating,[3]; 1/2 lb/A,2S
same,plant injury rating,[3]; 1/4 lb/A,1 (no injury)
same,plant injury rating,[3]; 2 lb/A,1 (no injury)
same,plant injury rating,[3]; 4 lb/A,4BS
same,plant injury rating,[4]; 1/2 lb/A,2S
same,plant injury rating,[4]; 1/4 lb/A,1 (no injury)
same,plant injury rating,[4]; 2 lb/A,5D
same,plant injury rating,[4]; 4 lb/A,5D
same,plant injury rating,[5]; 1/2 lb/A,2S
same,plant injury rating,[5]; 1/4 lb/A,1 (no injury)
same,plant injury rating,[5]; 2 lb/A,4SR
same,plant injury rating,[5]; 4 lb/A,4RS
same,plant injury rating,[5]; 8 lb/A,5D
same,plant injury rating,[6]; 1/2 lb/A,1 (no injury)
same,plant injury rating,[6]; 1/4 lb/A,1 (no injury)
same,plant injury rating,[6]; 1 lb/A,1 (no injury)
same,plant injury rating,[6]; 2 lb/A,2S
same,plant injury rating,[6]; 4 lb/A,4BS
same,plant injury rating,[6]; 8 lb/A,5D
same,plant injury rating,[7]; 1/2 lb/A,3BS
same,plant injury rating,[7]; 1/4 lb/A,2BS
same,plant injury rating,[7]; 1 lb/A,4BS
same,plant injury rating,[7]; 2 lb/A,5D
same,plant injury rating,[7]; 4 lb/A,5D
same,plant injury rating,[7]; 8 lb/A,5D
same,plant injury rating,[8]; 1/2 lb/A,2B
same,plant injury rating,[8]; 1/4 lb/A,2B
same,plant injury rating,[8]; 2 lb/A,3BS
same,plant injury rating,[8]; 4 lb/A,4BS
same,plant injury rating,[8]; 8 lb/A,5D
same,plant injury rating,[9]; 1/2 lb/A,3BS
same,plant injury rating,[9]; 1/4 lb/A,3BS
same,plant injury rating,[9]; 2 lb/A,5D
same,plant injury rating,[9]; 4 lb/A,5D
same,plant injury rating,[9]; 8 lb/A,5D
same,Housefly Kd. (knockdown rating),[10],1 (1-50)
same,Housefly Cont. (mortality rating),[10],3 (100)
"O=[N+]([O-])c1cc(Cl)cc2c1NC(O)(C(F)F)N2 (centres unmarked) [Example 5, 2-Hydroxy-2-(Difluoromethyl)-4-Nitro-6-Chlorobenzimidazoline, Calcium Salt]",plant injury rating,[5]; 8 lb/A,2S
same,plant injury rating,[6]; 8 lb/A,4R
same,plant injury rating,[7]; 1 lb/A,3BS
same,plant injury rating,[7]; 2 lb/A,3BS
same,plant injury rating,[7]; 4 lb/A,4BS
same,plant injury rating,[7]; 8 lb/A,4BS
same,plant injury rating,[8]; 1 lb/A,2BS
same,plant injury rating,[8]; 2 lb/A,2BS
same,plant injury rating,[8]; 4 lb/A,3BS
same,plant injury rating,[8]; 8 lb/A,4BS
same,plant injury rating,[9]; 1 lb/A,3BS
same,plant injury rating,[9]; 2 lb/A,3BS
same,plant injury rating,[9]; 4 lb/A,4BS
same,plant injury rating,[9]; 8 lb/A,5D
"O=[N+]([O-])c1cc(C(F)(F)F)cc2c1NC(O)(C(F)(F)C(F)F)N2O (centres unmarked) [Example 12, 1,2-Dihydroxy-2-(1,1,2,2-Tetrafluoroethyl)-4-Nitro-6-(Trifluoromethyl)Benzimidazoline]",plant injury rating,[1]; 1/2 lb/A,1 (no injury)
same,plant injury rating,[1]; 1 lb/A,1 (no injury)
same,plant injury rating,[1]; 2 lb/A,1 (no injury)
same,plant injury rating,[2]; 1/2 lb/A,1 (no injury)
same,plant injury rating,[2]; 1 lb/A,1 (no injury)
same,plant injury rating,[2]; 2 lb/A,1 (no injury)
same,plant injury rating,[3]; 1/2 lb/A,1 (no injury)
same,plant injury rating,[3]; 1 lb/A,1 (no injury)
same,plant injury rating,[3]; 2 lb/A,1 (no injury)
same,plant injury rating,[4]; 1/2 lb/A,1 (no injury)
same,plant injury rating,[4]; 1 lb/A,3SB
same,plant injury rating,[4]; 2 lb/A,3S
same,plant injury rating,[5]; 1/2 lb/A,1 (no injury)
same,plant injury rating,[5]; 1 lb/A,3S
same,plant injury rating,[5]; 2 lb/A,4S
same,plant injury rating,[5]; 8 lb/A,5N
same,plant injury rating,[6]; 1/2 lb/A,1 (no injury)
same,plant injury rating,[6]; 1 lb/A,1 (no injury)
same,plant injury rating,[6]; 2 lb/A,1 (no injury)
same,plant injury rating,[6]; 8 lb/A,4RS
same,plant injury rating,[7]; 1/4 lb/A,3BS
same,plant injury rating,[7]; 1/8 lb/A,3BS
same,plant injury rating,[7]; 1 lb/A,5D
same,plant injury rating,[7]; 2 lb/A,5D
same,plant injury rating,[7]; 8 lb/A,3BS
same,plant injury rating,[8]; 1/4 lb/A,1 (no injury)
same,plant injury rating,[8]; 1/8 lb/A,1 (no injury)
same,plant injury rating,[8]; 1 lb/A,3BS
same,plant injury rating,[8]; 2 lb/A,3BS
same,plant injury rating,[8]; 8 lb/A,2B
same,plant injury rating,[9]; 1/4 lb/A,3B
same,plant injury rating,[9]; 1/8 lb/A,2B
same,plant injury rating,[9]; 1 lb/A,5D
same,plant injury rating,[9]; 2 lb/A,5D
same,plant injury rating,[9]; 8 lb/A,4BS
same,Housefly Kd. (knockdown rating),[10],0 (0)
same,Housefly Cont. (mortality rating),[10],2 (51-99)
